Tested on: mouse monoclonal antibodies (mAb) B8 against Btri
Experiment: ELISA: binding of anti-Btri mAb to Streptavidin-coated plates modified with biotinylated Btri glycoconjugates
Settings: for fluorescence intensity I (binding capacity / maximal activity): corrected fluorescence 355nm/460nm, at loading of maximal binding
Procedure: Biot1-PNPA was used to prepare a polyacrylamide conjugate with blood group trisaccharide B (Btri), Galα1-3(Fucα1-2)Gal-(FIG. 1b, Glyc=Btri). The obtained end-labeled glycopolymer; biott-PHEAA-(Btri)x (molar fraction of Btri is 20%), was tested on ability to bind monoclonal antibodies (mAbs) against Btri in ELISA. Its antibody binding activity was compared to that of other biotinylated derivatives of Btri, two monomeric glycosides with Btri-biot linkers of different length and a glycopolymer, PHEAA-(Btri)x-bioty. The latter was synthesized by the routine approach (see FIG. 1a) and contained biotin residues randomly pendant to the polymer backbone as side groups.
Dependence of signal in ELISA from loading of Streptaviditn-coated plates with biotynylated glycoconjugates is shown in FIG. 8. As shown, binding of antibodies with Streptavidin-coated plates modified with biotinilated glycoconjugates. The Streptavidin-coated plates were consequentially incubated with the glycoconjugates and mouse mAb; for development of the bound mAbs an anti-mouse alkaline phosphatase conjugate in combination with a fluorescent substrate were used. The detected fluorescence intensity is plotted against added per well amounts of a) Btri and b) biotin related to the quantity of Streptavidin in well. According the manufacturer 125 pmole Streptavidin is contained per well, the working well surface was calculated to be 9·10^15 Å^2. […] The antibody binding to surface modified with the biotinylated monovalent Btri-glycosides was noticeably lower then in the cases with the multivalent ligands. For the glycoside with a long linker, Btri-O(CH2)3NHCO(CH2)5NH-biot, assay signal was detected only when coating concentration of the glycoside exceeded 20 ng/well (0.18 mole biotin/mole Streptavidin, and 22 pmole of Btri/well).
All chemicals and solvents apart from those mentioned below were purchased from Merck (Germany) and Fluka (Switzerland). The solvents were dried and purified by conventional procedures. Galα1-3(Fucα1-2)Galβ-O(CH2)3NH2, 4-Nitrophenylacrylate, PNPA and PHEAA-(Btri)x-biotiny were synthesized as described elsewhere. Mouse monoclonal antibodies (mAb) B8 against Btri were obtained from All-Russian Hematology Research Center, Moscow. Anti-mouse IgG+IgM (H+L)-alkaline phosphatase conjugate (Ig-AP) was the product of AP Biotech (UK). The organocobalt complexes used in this work were protected from light; their solutions were concentrated under vacuum with bath temperature kept below 35° C.
Enzyme-Linked Immunosorbent Assay.
Before test plates “Reacti-Bind Streptavidin Coated High Binding Capacity Black 96-Well Plate” (Pierce) were rinsed twice with PBS. Then serial tenfold dilutions of the biotinylated glycoconjugates contained Btri in PBS (0.02-200 μg ml^−1, […] per well) were added onto the plates for 1 h at 37° C. Plates were washed with PBS containing 0.1% Tween-20 (washing buffer). The same way plates were washed between all the next steps. After washing the plates were blocked with 3-% BSA in PBS. B8 mAbs (1:100 in PBS containing 0.3% BSA) were added and plates were incubated for 1 h at 37° C. After that plates were washed and incubated with Ig-AP (1:5000 in PBS containing 0.3% BSA) for 1 h at 37° C. […] After 30-min incubation at room temperature fluorescence intensity (355nm/460nm) was measured by “Victor^2” multilabel counter (PerkinElmer). The collected data were expressed in fluorescence units. Each assay was done in duplicate, blank reaction was performed by omitting mAb. The blank reading was subtracted from the final fluorescence to provide the corrected fluorescence intensity values.

Q: For Btri-O(CH2)3NH-biot, which “interaction with mAb (in words)” value (ELISA on Streptavidin-coated plates) is on record?
A: The value was “exceptionally weak”.

Q: And the “fluorescence intensity I (binding capacity / maximal activity)” value?
A: Its value is ~5×10^4 f.u.

Q: Which “coating concentration above which assay signal was detected” value (0.18 mole biotin/mole Streptavidin, 22 pmole of Btri/well) does the source give for Btri-O(CH2)3NHCO(CH2)5NH-biot here?
A: The value was “exceeded 20 ng/well”.

Q: And the “loading at which maximal binding of mAb / maximal activity was achieved” value (Streptavidin-coated plate, 125 pmole Streptavidin per well, 200 ng/well = 186 pmol of Btri, 220 ng/well = 220 pmole of Btri/well)?
A: The value was 220 ng/well.

Q: And the “fluorescence intensity I (binding capacity / maximal activity)” value?
A: Its value is ~70×10^4 f.u.

Q: And the “surface density of Btri at which binding with mAb reached maximal level” value (working well surface calculated to be 9·10^15 Å^2)?
A: Its value is “about 15 residues/1000 Å^2”.

Source: patent publication US20080076137A1, “Bioanalytic Systems and Methods” (priority 2006, published 2008)
